Test results reported in patent US20100305215A1, “DERMAL REGENERATION ENHANCER” (JAPAN SCIENCE AND TECHNOLOGY AGENCY, priority 2005, published 2010).

Tested on: skin of colored guinea pigs having melanin pigment-producing cells
Experiment: Dermal regeneration enhancing action of liquid crystal versus its constituting components on guinea pig skin (Example 4)
Format: in vivo, guinea pigs (Weiser Maples)
Details: 30 mg on 2 cm×2 cm shaved back; each sample solely applied
Method: Back of colored guinea pigs having melanin pigment-producing cells (Weiser Maples; six weeks age; male) was shaved, the shaved part was washed with lukewarm water and 30 mg of the above lyotropic liquid crystal was applied to an area of 2 cm×5 cm thereof. After 2 days from the application date under irradiation with any of UVA, UVB and UVA+UVB, skin of the part to which the lyotropic liquid crystal was applied was collected and the slice was fixed with formalin, embedded in paraffin and stained by a Fontana-Masson method where melanin pigment was stained out in black to evaluate the dermal regeneration enhancing action.
Back of colored guinea pigs having melanin pigment-producing cells (Weiser Maples, five weeks age, male) was shaved, the shaved part was washed with lukewarm water, each 30 mg of the four kinds of samples of the lyotropic crystal of (A) of Example 1 and the constituting components thereof—surfactant, oil and polyhydric alcohol—was applied to an area of 2 cm×2 cm thereof and the dermal regeneration enhancing action was evaluated by the method mentioned in (A) of Example 1. Cross-sectional pictures of the skin to which each of the samples was applied are shown in FIG. 6 together with the cross-sectional picture of the skin to which nothing was applied.

CC(C)CCCC(C)CCCC(C)CCCCC(C)CCCC(C)CCCC(C)C (centres unmarked) [oil, squalane]
dermal regeneration enhancing action: no dermal regeneration enhancing action was noted

OCC(O)CO [polyhydric alcohol, glycerol]
dermal regeneration enhancing action: no dermal regeneration enhancing action was noted
